Assay results: ChEMBL document CHEMBL5120914, “An O-Benzyl Phosphonamidate Prodrug of Tenofovir for the Treatment of Hepatitis B Virus Infection” (J Med Chem, 2022)
pEC50: −log10 of the molar value.

How the values were obtained:
[1] = Cytotoxicity against human HepG2 cells assessed as reduction in cell growth incubated for 3 days by MTT assay; assay type: toxicity, cell-based; details: time 3 day
Hepatitis B virus [2] = experiment: Antiviral activity against Hepatitis B virus infected in human HepG2.2.15 cells assessed as inhibition of viral DNA replication at 1 uM measured after 6 days by FQ-PCR analysis relative to control; assay type: functional, HepG2 2.2.15; set-up: scale not given: the % may be the effect or the level left; details: time 6 day
Hepatitis B virus [3] = experiment: Antiviral activity against Hepatitis B virus infected in human HepG2.2.15 cells assessed as inhibition of viral DNA replication measured for 9 days by FQ-PCR analysis; assay type: functional, organism-based; details: HepG2 2.2.15, 216 h
HepG2 = experiment: Cytotoxicity against human HepG2 cells assessed as reduction in cell growth upto 500 uM incubated for 3 days by MTT assay; assay type: toxicity, cell-based; details: hepg2, 72 h, time 3 day
Hepatitis B virus [4] = experiment: Antiviral activity against Hepatitis B virus infected in human HepG2.2.15 cells assessed as inhibition of viral DNA replication at 20 uM measured after 6 days by FQ-PCR analysis relative to control; assay type: functional, HepG2 2.2.15; set-up: scale not given: the % may be the effect or the level left; details: time 6 day
Hepatitis B virus [5] = experiment: Antiviral activity against Hepatitis B virus infected in ig dosed duck assessed as reduction in viral DNA replication in liver administered once daily for first 10 days followed by increase in dose administered for another 18 days; assay type: functional, organism-based; details: dose 10-40 mg/kg, time 28.0 day, DDE = dose-dependent effect

SMILES | CC50 at 72 h [1] | Activity (Hepatitis B virus [2]) | pEC50 (Hepatitis B virus [3]) | also measured
Cc1ccccc1COP(=O)(CO[C@H](C)Cn1cnc2c(N)ncnc21)NCC(=O)OC(C)C (some centres not stated) | > 500 µM | – | – | –
Cc1cccc(COP(=O)(CO[C@H](C)Cn2cnc3c(N)ncnc32)N[C@@H](C)C(=O)OC(C)C)c1 (some centres not stated) | > 500 µM | 69.34% | 6.74 | –
CC(C)OC(=O)[C@H](C)NP(=O)(CO[C@H](C)Cn1cnc2c(N)ncnc21)OCc1cccc([N+](=O)[O-])c1 (some centres not stated) | > 500 µM | 34.63% | – | –
COc1cccc(COP(=O)(CO[C@H](C)Cn2cnc3c(N)ncnc32)N[C@@H](C)C(=O)OC(C)C)c1 (some centres not stated) | > 500 µM | 46.33% | – | –
COC(=O)C[C@H](NP(=O)(CO[C@H](C)Cn1cnc2c(N)ncnc21)OCc1ccccc1C)C(=O)OC (some centres not stated) | > 500 µM | 69.01% | 6.08 | –
CC(C)OC(=O)[C@H](C)NP(=O)(CO[C@H](C)Cn1cnc2c(N)ncnc21)OCc1ccc(Cl)cc1 (some centres not stated) | > 500 µM | 67.85% | 6.84 | –
CC(C)OC(=O)[C@H](C)NP(=O)(CO[C@H](C)Cn1cnc2c(N)ncnc21)OCc1ccccc1Cl (some centres not stated) | > 500 µM | 42.6% | – | –
CC(C)OC(=O)[C@H](C)NP(=O)(CO[C@H](C)Cn1cnc2c(N)ncnc21)OCc1ccccc1Br (some centres not stated) | 490 µM | 80.75% | 7.28 | –
Cc1ccccc1COP(=O)(CO[C@H](C)Cn1cnc2c(N)ncnc21)N[C@@H](C)C(=O)OCC(C)(C)C (some centres not stated) | > 500 µM | 35.22% | – | –
Cc1ccccc1COP(=O)(CO[C@H](C)Cn1cnc2c(N)ncnc21)N[C@@H](C)C(=O)OC(C)C (stereo in doubt; 1a-1) | – | – | – | Activity (Hepatitis B virus [2]; 144 h, 1 µM): 62.5%; Activity (HepG2): Non-Toxic
CC(C)OC(=O)[C@H](C)NP(=O)(CO[C@H](C)Cn1cnc2c(N)ncnc21)OCc1ccccc1F (some centres not stated) | > 500 µM | 66.36% | 7.54 | –
Cc1ccccc1COP(=O)(CO[C@H](C)Cn1cnc2c(N)ncnc21)N[C@@H](C)C(=O)OCC(C)C (some centres not stated) | > 500 µM | 25.78% | – | –
CC(C)OC(=O)[C@H](C)NP(=O)(CO[C@H](C)Cn1cnc2c(N)ncnc21)OCc1cccc(C(F)(F)F)c1 (some centres not stated) | > 500 µM | 35.34% | – | –
Cc1ccccc1COP(=O)(CO[C@H](C)Cn1cnc2c(N)ncnc21)N[C@@H](C)C(=O)OC1CCCCC1 (some centres not stated) | > 500 µM | 21.46% | – | –
Nc1ccn([C@@H]2CS[C@H](CO)O2)c(=O)n1 [LAMIVUDINE] | > 500 µM | – | – | Activity (Hepatitis B virus [4]): 77.32%
CC(C)OC(=O)[C@H](C)NP(=O)(CO[C@H](C)Cn1cnc2c(N)ncnc21)OCc1ccc(F)cc1 (some centres not stated) | > 500 µM | 43.65% | – | –
CCCCOC(=O)[C@H](C)NP(=O)(CO[C@H](C)Cn1cnc2c(N)ncnc21)OCc1ccccc1C (some centres not stated) | > 500 µM | 22.62% | – | –
Cc1ccccc1COP(=O)(CO[C@H](C)Cn1cnc2c(N)ncnc21)N[C@@H](C)C(=O)OC(C)C (stereo in doubt; 1a) | – | – | – | Activity (Hepatitis B virus [5]): Dde
Cc1ccccc1COP(=O)(CO[C@H](C)Cn1cnc2c(N)ncnc21)N[C@@H](Cc1ccccc1)C(=O)OC(C)C (some centres not stated) | > 500 µM | 63.8% | 6.31 | –
